Test results published in ChEMBL document CHEMBL1201862, “PubChem BioAssay data set” (2004).
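A five-concentration, 48-hour dose response in 96-well plates underlies each endpoint, interpolated linearly between surrounding concentrations. At the GI50, growth is halved.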 The source made the active and inactive calls. Cut-off read from the data, not from the text of the source: active = GI50 up to about 1.1 µM and inactive = higher.

What was measured:
Assay in all cases: growth of human tumour cells (NCI), 48 h
CAKI-1 = system: CAKI-1
CCRF-CEM = system: CCRF-CEM
COLO 205 = system: COLO 205
EKVX = system: EKVX
HCC 2998 = system: HCC 2998
MOLT-4 = system: MOLT-4
NCI-H23 = system: NCI-H23
OVCAR-3 = system: OVCAR-3
OVCAR-4 = system: OVCAR-4
RPMI-8226 = system: RPMI-8226
SF-295 = system: SF-295
TK-10 = system: TK-10
UO-31 = system: UO-31
LOX IMVI = system: LOX IMVI
HL-60 = system: HL-60

SMILES	GI50 (CAKI-1)	GI50 (CCRF-CEM)	GI50 (COLO 205)	GI50 (EKVX)	GI50 (HCC 2998)	GI50 (MOLT-4)	GI50 (NCI-H23)	GI50 (OVCAR-3)	GI50 (OVCAR-4)	GI50 (RPMI-8226)	GI50 (SF-295)	GI50 (TK-10)	GI50 (UO-31)	GI50 (LOX IMVI)	GI50 (HL-60)
COc1ccc(/C=C2\Cc3ccccc3C2=O)cc1OC	> 100 µM (inactive)	> 100 µM (inactive)	> 100 µM (inactive)	> 100 µM (inactive)	> 100 µM (inactive)	> 100 µM (inactive)	91.6 µM (inactive)	> 100 µM (inactive)	> 100 µM (inactive)	> 100 µM (inactive)	60.8 µM (inactive)	> 100 µM (inactive)	39.7 µM (inactive)		
C=C1C(=O)O[C@H]2C[C@@H](C)[C@@H]3CC(=O)OC[C@@]3(C)CC12 (stereo partly specified)	18 µM (inactive)	12.9 µM (inactive)	20.9 µM (inactive)	27.5 µM (inactive)	32.1 µM (inactive)	27.5 µM (inactive)	23.3 µM (inactive)	28 µM (inactive)	22.8 µM (inactive)	21.4 µM (inactive)	21.6 µM (inactive)	22.8 µM (inactive)	49.1 µM (inactive)	24.9 µM (inactive)	
COC(=O)C(Cc1nc2ccccc2nc1O)/C(=N\NC(C)(C)C)C(=O)Nc1c(C)cc(Br)cc1C (stereo unspecified)	24.5 µM (inactive)	17.8 µM (inactive)	17.4 µM (inactive)	36.4 µM (inactive)	73.1 µM (inactive)	1.5 µM (inactive)	25.2 µM (inactive)	> 10 µM (inactive)	34.8 µM (inactive)	35.2 µM (inactive)	35.3 µM (inactive)		50.4 µM (inactive)	19.3 µM (inactive)	
CC(C)=CCC/C(C)=C/CC/C(C)=C/CCC1(C)CCC([C@H](C)C(=O)O)OO1.CC1=C(CC/C(C)=C/CCC2(C)CCC([C@H](C)C(=O)O)OO2)C(C)(C)CCC1 (stereo partly specified)	> 100 µM (inactive)		> 100 µM (inactive)	> 100 µM (inactive)	85.3 µM (inactive)		> 100 µM (inactive)	> 100 µM (inactive)	> 100 µM (inactive)		> 100 µM (inactive)	> 100 µM (inactive)	> 100 µM (inactive)	> 100 µM (inactive)	> 100 µM (inactive)
CC(=O)Oc1ccc(CO)cc1OC(C)=O	> 100 µM (inactive)	27.6 µM (inactive)	> 100 µM (inactive)	32.2 µM (inactive)		> 100 µM (inactive)		> 100 µM (inactive)	> 100 µM (inactive)	51.6 µM (inactive)	> 100 µM (inactive)	> 100 µM (inactive)	> 100 µM (inactive)	> 100 µM (inactive)	24.5 µM (inactive)
CCC1=CCN(c2cc(C)ccn2)OC1c1ccccc1 (stereo unspecified)	66.1 µM (inactive)	35.7 µM (inactive)	40.6 µM (inactive)	56.4 µM (inactive)	33.3 µM (inactive)	34.5 µM (inactive)	25.4 µM (inactive)	65.6 µM (inactive)	59.8 µM (inactive)	19.1 µM (inactive)	39.3 µM (inactive)		50 µM (inactive)	30.9 µM (inactive)	18.3 µM (inactive)
CC(N)Cc1ccc(F)cc1 (stereo unspecified)	> 100 µM (inactive)	> 100 µM (inactive)	> 100 µM (inactive)	> 100 µM (inactive)	> 100 µM (inactive)	> 100 µM (inactive)	> 100 µM (inactive)	> 100 µM (inactive)	> 100 µM (inactive)	> 100 µM (inactive)	> 100 µM (inactive)	> 100 µM (inactive)	> 100 µM (inactive)	> 100 µM (inactive)	> 100 µM (inactive)
CSc1nc(NC2OC(COC(C)=O)C(OC(C)=O)C(OC(C)=O)C2OC(C)=O)c2c(n1)OCC2=O (stereo unspecified)	> 100 µM (inactive)	> 100 µM (inactive)	> 100 µM (inactive)			> 100 µM (inactive)	> 100 µM (inactive)	> 100 µM (inactive)	> 100 µM (inactive)	> 100 µM (inactive)	> 100 µM (inactive)	> 100 µM (inactive)	> 100 µM (inactive)	> 100 µM (inactive)	> 100 µM (inactive)
Cc1ccc(C2=Nc3ccccc3NC(=O)C2)cc1	> 100 µM (inactive)	38 µM (inactive)	> 100 µM (inactive)	> 100 µM (inactive)	> 100 µM (inactive)	> 100 µM (inactive)	> 100 µM (inactive)	> 100 µM (inactive)	> 100 µM (inactive)		> 100 µM (inactive)	> 100 µM (inactive)	> 100 µM (inactive)	95.1 µM (inactive)	51.2 µM (inactive)
CC1CC(c2ccc([N+](=O)[O-])cc2)=Nc2ccccc2[S+]1[O-] (stereo unspecified)	20.9 µM (inactive)	11 µM (inactive)	18 µM (inactive)	23.4 µM (inactive)	21.8 µM (inactive)	24.8 µM (inactive)	17.6 µM (inactive)		21.6 µM (inactive)	4.58 µM (inactive)	21.4 µM (inactive)	27 µM (inactive)	13 µM (inactive)	12.1 µM (inactive)	15.1 µM (inactive)
CCNC(=O)OCc1c(COC(=O)NCC)c(-c2ccc(Cl)c(Cl)c2)n2c1CCC2	3.01 µM (inactive)	4.09 µM (inactive)	24.9 µM (inactive)		14.3 µM (inactive)	5.06 µM (inactive)	8.05 µM (inactive)	17.6 µM (inactive)	15.2 µM (inactive)	7.18 µM (inactive)	11.7 µM (inactive)	10.9 µM (inactive)	5.22 µM (inactive)		3.24 µM (inactive)
CC1(C)C(=O)OC(n2cc(F)c(=O)[nH]c2=O)C1=O (stereo unspecified)		> 100 µM (inactive)	> 100 µM (inactive)	39.1 µM (inactive)	46.6 µM (inactive)	> 100 µM (inactive)	> 100 µM (inactive)	> 100 µM (inactive)	> 100 µM (inactive)	> 100 µM (inactive)	> 100 µM (inactive)	> 100 µM (inactive)	> 100 µM (inactive)	> 100 µM (inactive)	> 100 µM (inactive)
N#CC1(Cc2ccccc2)CCCCN1C(=O)c1ccccc1 (stereo unspecified)		> 100 µM (inactive)	> 100 µM (inactive)	> 100 µM (inactive)	> 100 µM (inactive)	74.6 µM (inactive)	> 100 µM (inactive)	> 100 µM (inactive)	> 100 µM (inactive)	> 100 µM (inactive)	> 100 µM (inactive)	> 100 µM (inactive)	92.9 µM (inactive)	84.7 µM (inactive)	45.2 µM (inactive)
CC1OC(n2cc(F)c(=O)[nH]c2=O)C=CC1=O (stereo unspecified)	14.5 µM (inactive)	13.8 µM (inactive)	32.2 µM (inactive)		17.8 µM (inactive)	24.2 µM (inactive)	83 µM (inactive)	16 µM (inactive)	18.1 µM (inactive)	21 µM (inactive)	17.3 µM (inactive)	17 µM (inactive)	16.1 µM (inactive)	15 µM (inactive)	17.9 µM (inactive)
C=CCCOC(=O)CO[N+](=O)[O-]	> 100 µM (inactive)	> 100 µM (inactive)	> 100 µM (inactive)	> 100 µM (inactive)	> 100 µM (inactive)	> 100 µM (inactive)	> 100 µM (inactive)	> 100 µM (inactive)	> 100 µM (inactive)	> 100 µM (inactive)	> 100 µM (inactive)	> 100 µM (inactive)	> 100 µM (inactive)	> 100 µM (inactive)	23.2 µM (inactive)
Cc1cc2c(=O)c3ccccc3[nH]c2c(C(N)=O)c1C	> 100 µM (inactive)	> 100 µM (inactive)	> 100 µM (inactive)	> 100 µM (inactive)		> 100 µM (inactive)	> 100 µM (inactive)	> 100 µM (inactive)	> 100 µM (inactive)	> 100 µM (inactive)	> 100 µM (inactive)	> 100 µM (inactive)	> 100 µM (inactive)	> 100 µM (inactive)	
CSC1NC=Nc2c1sc(=S)n2-c1ccccc1 (stereo unspecified)	> 100 µM (inactive)		> 100 µM (inactive)	> 100 µM (inactive)	> 100 µM (inactive)	> 100 µM (inactive)	> 100 µM (inactive)	54.1 µM (inactive)	89.1 µM (inactive)	> 100 µM (inactive)	> 100 µM (inactive)	> 100 µM (inactive)	> 100 µM (inactive)	> 100 µM (inactive)	
CCOC(=O)CP(=S)(S)c1ccccc1 (stereo unspecified)	> 100 µM (inactive)	> 100 µM (inactive)	> 100 µM (inactive)	> 100 µM (inactive)		> 100 µM (inactive)	> 100 µM (inactive)		> 100 µM (inactive)		> 10 µM (inactive)	> 100 µM (inactive)	> 100 µM (inactive)	> 100 µM (inactive)	> 100 µM (inactive)
C=CC1[C@H]2COC(C)(C)O[C@@H]2CC(=O)C1(C)C (stereo partly specified)	> 100 µM (inactive)		> 100 µM (inactive)	54.2 µM (inactive)	> 100 µM (inactive)		> 100 µM (inactive)		> 100 µM (inactive)		> 100 µM (inactive)	> 100 µM (inactive)	> 100 µM (inactive)	> 100 µM (inactive)	> 100 µM (inactive)
C[C@@H]1C[C@H]2[C@@H]3CCC4=CC(=O)C=C[C@]4(C)[C@@]3(F)[C@@H](O)C[C@]2(C)[C@@]1(O)C(=O)CO [DEXAMETHASONE]	> 100 µM (inactive)	0.0239 µM (active)	> 100 µM (inactive)	83.6 µM (inactive)		95.1 µM (inactive)	> 100 µM (inactive)	> 100 µM (inactive)	> 100 µM (inactive)			> 100 µM (inactive)	> 100 µM (inactive)	> 100 µM (inactive)	> 100 µM (inactive)
